Data as given in ChEMBL document CHEMBL4396865, “Current advances of triazole alcohols derived from fluconazole: Design, in vitro and in silico studies” (2019).
Converted amounts (≈) assume the structure as drawn.

Columns and labels:
Format in all cases: functional
Candida albicans = test: Antifungal activity against Candida albicans after 24 hrs by NCCLS protocol based method
Candida tropicalis = test: Antifungal activity against Candida tropicalis after 24 hrs by NCCLS protocol based method
Cryptococcus neoformans = test: Antifungal activity against Cryptococcus neoformans after 72 hrs by NCCLS protocol based method
Trichophyton rubrum = test: Antifungal activity against Trichophyton rubrum after 7 days by NCCLS protocol based method; settings: 168 h
Nannizzia gypsea = test: Antifungal activity against Microsporum gypseum after 7 days by NCCLS protocol based method; settings: 168 h
Candida parapsilosis = test: Antifungal activity against Candida parapsilosis after 24 hrs by NCCLS protocol based method; settings: Lodderomyces parapsilosis
Fonsecaea compacta = test: Antifungal activity against Fonsecaea compacta after 24 hrs by NCCLS protocol based method

| MIC (Candida albicans) [ng/mL] | MIC (Candida tropicalis) [ng/mL] | MIC (Cryptococcus neoformans) [ng/mL] | MIC (Trichophyton rubrum) [ng/mL] | MIC (Nannizzia gypsea) [ng/mL] | MIC80 (Candida albicans) [ng/mL] | MIC80 (Candida tropicalis) [ng/mL] | MIC80 (Cryptococcus neoformans) [ng/mL] | MIC80 (Trichophyton rubrum) [ng/mL] | MIC80 (Candida parapsilosis) [ng/mL] | MIC80 (Fonsecaea compacta) [ng/mL] | Compound |
| --- | --- | --- | --- | --- | --- | --- | --- | --- | --- | --- | --- |
| 1 (≈ 2.32 nM) | 1 (≈ 2.32 nM) | 1 (≈ 2.32 nM) | 1 (≈ 2.32 nM) | 1 (≈ 2.32 nM) | – | – | – | – | – | – | Cc1ccc(OCCCCN(C)CC(O)(Cn2cncn2)c2ccc(F)cc2F)cc1 (configuration not stated) |
| 1 (≈ 2.22 nM) | 1 (≈ 2.22 nM) | 1 (≈ 2.22 nM) | 1 (≈ 2.22 nM) | 1 (≈ 2.22 nM) | – | – | – | – | – | – | CN(CCCCOc1ccc(Cl)cc1)CC(O)(Cn1cncn1)c1ccc(F)cc1F (configuration not stated) |
| 1 (≈ 2.32 nM) | 1 (≈ 2.32 nM) | 1 (≈ 2.32 nM) | 1 (≈ 2.32 nM) | 1 (≈ 2.32 nM) | – | – | – | – | – | – | Cc1cccc(OCCCCN(C)CC(O)(Cn2cncn2)c2ccc(F)cc2F)c1 (configuration not stated) |
| 1 to 16 (≈ 2.17 to 34.7 nM) | 1 to 16 (≈ 2.17 to 34.7 nM) | 1 to 16 (≈ 2.17 to 34.7 nM) | 1 to 16 (≈ 2.17 to 34.7 nM) | 1 to 16 (≈ 2.17 to 34.7 nM) | – | – | – | – | – | – | CN(CCCCOc1cccc([N+](=O)[O-])c1)CC(O)(Cn1cncn1)c1ccc(F)cc1F (configuration not stated) |
| 1 to 16 (≈ 2.17 to 34.7 nM) | 1 to 16 (≈ 2.17 to 34.7 nM) | 1 to 16 (≈ 2.17 to 34.7 nM) | 1 to 16 (≈ 2.17 to 34.7 nM) | 1 to 16 (≈ 2.17 to 34.7 nM) | – | – | – | – | – | – | CN(CCCCOc1ccccc1[N+](=O)[O-])CC(O)(Cn1cncn1)c1ccc(F)cc1F (configuration not stated) |
| 1 (≈ 2.17 nM) | 1 (≈ 2.17 nM) | 1 (≈ 2.17 nM) | 1 (≈ 2.17 nM) | 1 (≈ 2.17 nM) | – | – | – | – | – | – | CN(CCCCOc1ccc([N+](=O)[O-])cc1)CC(O)(Cn1cncn1)c1ccc(F)cc1F (configuration not stated) |
| 1 to 16 (≈ 2.4 to 38.4 nM) | 1 to 16 (≈ 2.4 to 38.4 nM) | 1 to 16 (≈ 2.4 to 38.4 nM) | 1 to 16 (≈ 2.4 to 38.4 nM) | 1 to 16 (≈ 2.4 to 38.4 nM) | – | – | – | – | – | – | Cc1ccccc1OCCCN(C)CC(O)(Cn1cncn1)c1ccc(F)cc1F (configuration not stated) |
| – | – | – | – | – | 3.9 to 62.5 (≈ 8.29 to 133 nM) | 3.9 to 62.5 (≈ 8.29 to 133 nM) | 3.9 to 62.5 (≈ 8.29 to 133 nM) | 3.9 to 62.5 (≈ 8.29 to 133 nM) | 3.9 to 62.5 (≈ 8.29 to 133 nM) | 3.9 to 62.5 (≈ 8.29 to 133 nM) | CCc1ccc(C(=O)OC2CCN(CC(O)(Cn3cncn3)c3ccc(F)cc3F)CC2)cc1 (configuration not stated) |
| – | – | – | – | – | 3.9 to 62.5 (≈ 7.82 to 125 nM) | 3.9 to 62.5 (≈ 7.82 to 125 nM) | 3.9 to 62.5 (≈ 7.82 to 125 nM) | 3.9 to 62.5 (≈ 7.82 to 125 nM) | 3.9 to 62.5 (≈ 7.82 to 125 nM) | 3.9 to 62.5 (≈ 7.82 to 125 nM) | CC(C)(C)c1ccc(C(=O)OC2CCN(CC(O)(Cn3cncn3)c3ccc(F)cc3F)CC2)cc1 (configuration not stated) |
| 1 to 16 (≈ 2.18 to 34.9 nM) | 1 to 16 (≈ 2.18 to 34.9 nM) | 1 to 16 (≈ 2.18 to 34.9 nM) | 1 to 16 (≈ 2.18 to 34.9 nM) | 1 to 16 (≈ 2.18 to 34.9 nM) | – | – | – | – | – | – | CN(CCCOc1ccc(C(C)(C)C)cc1)CC(O)(Cn1cncn1)c1ccc(F)cc1F (configuration not stated) |
| 1 (≈ 2.23 nM) | 1 (≈ 2.23 nM) | 1 (≈ 2.23 nM) | 1 (≈ 2.23 nM) | 1 (≈ 2.23 nM) | – | – | – | – | – | – | CN(CCCOc1ccc([N+](=O)[O-])cc1)CC(O)(Cn1cncn1)c1ccc(F)cc1F (configuration not stated) |
| 1 to 16 (≈ 2.31 to 37 nM) | 1 to 16 (≈ 2.31 to 37 nM) | 1 to 16 (≈ 2.31 to 37 nM) | 1 to 16 (≈ 2.31 to 37 nM) | 1 to 16 (≈ 2.31 to 37 nM) | – | – | – | – | – | – | COc1ccc(OCCCN(C)CC(O)(Cn2cncn2)c2ccc(F)cc2F)cc1 (configuration not stated) |
| – | – | – | – | – | 3.9 to 62.5 (≈ 8.25 to 132 nM) | 3.9 to 62.5 (≈ 8.25 to 132 nM) | 3.9 to 62.5 (≈ 8.25 to 132 nM) | 3.9 to 62.5 (≈ 8.25 to 132 nM) | 3.9 to 62.5 (≈ 8.25 to 132 nM) | 3.9 to 62.5 (≈ 8.25 to 132 nM) | COc1ccc(C(=O)OC2CCN(CC(O)(Cn3cncn3)c3ccc(F)cc3F)CC2)cc1 (configuration not stated) |

The next lines start with the compound.

| Compound | MIC (Candida albicans) [ng/mL] | MIC (Candida tropicalis) [ng/mL] | MIC (Cryptococcus neoformans) [ng/mL] | MIC (Trichophyton rubrum) [ng/mL] | MIC (Nannizzia gypsea) [ng/mL] | MIC80 (Candida albicans) [ng/mL] | MIC80 (Candida tropicalis) [ng/mL] | MIC80 (Cryptococcus neoformans) [ng/mL] | MIC80 (Trichophyton rubrum) [ng/mL] | MIC80 (Candida parapsilosis) [ng/mL] | MIC80 (Fonsecaea compacta) [ng/mL] |
| --- | --- | --- | --- | --- | --- | --- | --- | --- | --- | --- | --- |
| O=C(OC1CCN(CC(O)(Cn2cncn2)c2ccc(F)cc2F)CC1)c1cccc([N+](=O)[O-])c1 (configuration not stated) | – | – | – | – | – | 3.9 to 62.5 (≈ 8 to 128 nM) | 3.9 to 62.5 (≈ 8 to 128 nM) | 3.9 to 62.5 (≈ 8 to 128 nM) | 3.9 to 62.5 (≈ 8 to 128 nM) | 3.9 to 62.5 (≈ 8 to 128 nM) | 3.9 to 62.5 (≈ 8 to 128 nM) |
| CCCCCCc1ccc(C(=O)OC2CCN(CC(O)(Cn3cncn3)c3ccc(F)cc3F)CC2)cc1 (configuration not stated) | – | – | – | – | – | 3.9 to 62.5 (≈ 7.41 to 119 nM) | 3.9 to 62.5 (≈ 7.41 to 119 nM) | 3.9 to 62.5 (≈ 7.41 to 119 nM) | 3.9 to 62.5 (≈ 7.41 to 119 nM) | 3.9 to 62.5 (≈ 7.41 to 119 nM) | 3.9 to 62.5 (≈ 7.41 to 119 nM) |
| Cc1ccc(C(=O)OC2CCN(CC(O)(Cn3cncn3)c3ccc(F)cc3F)CC2)cc1 (configuration not stated) | – | – | – | – | – | 3.9 to 62.5 (≈ 8.54 to 137 nM) | 3.9 to 62.5 (≈ 8.54 to 137 nM) | 3.9 to 62.5 (≈ 8.54 to 137 nM) | 3.9 to 62.5 (≈ 8.54 to 137 nM) | 3.9 to 62.5 (≈ 8.54 to 137 nM) | 3.9 to 62.5 (≈ 8.54 to 137 nM) |
| Cc1ccc(C(=O)OC2CCN(CC(O)(Cn3cncn3)c3ccc(F)cc3F)CC2)cc1C (configuration not stated) | – | – | – | – | – | 3.9 to 62.5 (≈ 8.29 to 133 nM) | 3.9 to 62.5 (≈ 8.29 to 133 nM) | 3.9 to 62.5 (≈ 8.29 to 133 nM) | 3.9 to 62.5 (≈ 8.29 to 133 nM) | 3.9 to 62.5 (≈ 8.29 to 133 nM) | 3.9 to 62.5 (≈ 8.29 to 133 nM) |
| O=C(OC1CCN(CC(O)(Cn2cncn2)c2ccc(F)cc2F)CC1)c1ccc(F)cc1 (configuration not stated) | – | – | – | – | – | 3.9 to 62.5 (≈ 8.47 to 136 nM) | 3.9 to 62.5 (≈ 8.47 to 136 nM) | 3.9 to 62.5 (≈ 8.47 to 136 nM) | 3.9 to 62.5 (≈ 8.47 to 136 nM) | 3.9 to 62.5 (≈ 8.47 to 136 nM) | 3.9 to 62.5 (≈ 8.47 to 136 nM) |
| O=C(OC1CCN(CC(O)(Cn2cncn2)c2ccc(F)cc2F)CC1)c1cccc(F)c1 (configuration not stated) | – | – | – | – | – | 3.9 to 62.5 (≈ 8.47 to 136 nM) | 3.9 to 62.5 (≈ 8.47 to 136 nM) | 3.9 to 62.5 (≈ 8.47 to 136 nM) | 3.9 to 62.5 (≈ 8.47 to 136 nM) | 3.9 to 62.5 (≈ 8.47 to 136 nM) | 3.9 to 62.5 (≈ 8.47 to 136 nM) |
| O=C(OC1CCN(CC(O)(Cn2cncn2)c2ccc(F)cc2F)CC1)c1ccc([N+](=O)[O-])cc1 (configuration not stated) | – | – | – | – | – | 3.9 to 62.5 (≈ 8 to 128 nM) | 3.9 to 62.5 (≈ 8 to 128 nM) | 3.9 to 62.5 (≈ 8 to 128 nM) | 3.9 to 62.5 (≈ 8 to 128 nM) | 3.9 to 62.5 (≈ 8 to 128 nM) | 3.9 to 62.5 (≈ 8 to 128 nM) |
| O=C(OC1CCN(CC(O)(Cn2cncn2)c2ccc(F)cc2F)CC1)c1ccccc1Cl (configuration not stated) | – | – | – | – | – | 3.9 to 62.5 (≈ 8.18 to 131 nM) | 3.9 to 62.5 (≈ 8.18 to 131 nM) | 3.9 to 62.5 (≈ 8.18 to 131 nM) | 3.9 to 62.5 (≈ 8.18 to 131 nM) | 3.9 to 62.5 (≈ 8.18 to 131 nM) | 3.9 to 62.5 (≈ 8.18 to 131 nM) |
| O=C(OC1CCN(CC(O)(Cn2cncn2)c2ccc(F)cc2F)CC1)c1ccccc1[N+](=O)[O-] (configuration not stated) | – | – | – | – | – | 3.9 to 62.5 (≈ 8 to 128 nM) | 3.9 to 62.5 (≈ 8 to 128 nM) | 3.9 to 62.5 (≈ 8 to 128 nM) | 3.9 to 62.5 (≈ 8 to 128 nM) | 3.9 to 62.5 (≈ 8 to 128 nM) | 3.9 to 62.5 (≈ 8 to 128 nM) |
